Columns and labels:
Format in all cases: biochemical
[1] = molecular target: T1, cathepsin B isolated from human liver (Homo sapiens, UniProt P07858); assay: Cathepsin B kinetic fluorescence enzyme inhibition assay; settings: selectivity ratio versus calpain I
T1 construct: cathepsin B—isolated from human liver; purchased Calbiochem 219362; host or cells: human liver (tissue isolate)
Experimental: (§1) The following solutions and buffers were employed: • HBS (for 40 ml): 800 μl M HEPES; 2.16 ml 100 mM KCl; 4.8 ml 1M NaCl; 3.59 ml 5% glucose; 60 μl μM MgSO4; 400 μl 100 mM Na pyruvate, 28.19 ml water; pH 7.2-7.5. • lysis buffer (for 20 ml): 400 μl M Tris pH 8.2; 2.74 ml 1M NaCl; 520 μl 0.5M EDTA; 2 ml 10% triton X-100; 0.8 ml (=1:25) CompletePlus (1 tablet/2 ml H2O); 200 μl 100 mM Pefabloc; 13.34 ml water, pH 8.2. • TBST (10×) (for 1 l): 100 mM Tris (12.1 g); 1.5M NaCl (87 g); 1% Tween 20 (10 g), adjusted to pH 8. I Enzyme Inhibition In Vitro: • Testing for blockade of the corresponding enzymic activities was carried out by means of kinetic fluorescence assays (excitation 390 nm, emission 460 nm). • Apparent Ki values were calculated from the experimentally determined IC50 values by the Cheng-Prussoff relation assuming a reversible competitive enzyme inhibition. The Km values of the substrates used under the assay conditions indicated above were: 90 μM (Z-Phe-Arg-AMC, cathepsin B), 10 μM (Z-Gly-Pro-Arg-AMC, cathepsin K), 2 μM (Z-Phe-Arg-AMC, cathepsin L), and 30 μM (Z-Val-Val-Arg-AMC, cathepsin S). • The indicated Ki values are averages of the inhibition constants calculated on the basis of 2 to 4 independent dose-effect plots.
(§2) The following assays were used: • 1. Calpain I: • 20 nM calpain-I—isolated from human erythrocytes (Calbiochem #208713), 100 μM Suc-Leu-Tyr-AMC (Bachem #1-1355) as substrate in buffer with 62 mM imidazole, 0.3 mM CaCl2, 0.10% CHAPS, 0.05% BSA, 1 mM DTT at pH 7.3 and room temperature. • 2. Cathepsin B: • 0.25 nM cathepsin B—isolated from human liver (Calbiochem #219362), 100 μM Z-Phe-Arg-AMC (Bachem #I-1160) as substrate 50 mM MES, 2 mM EDTA, 0.05% Brij 35, 2.5 mM L-cysteine, pH 6.0, room temperature. • 3. Cathepsin K: • 3 nM cathepsin K—activated from recombinant human procathepsin K from E. coli (Calbiochem #342001), 10 μM Z-Gly-Pro-Arg-AMC (Biomol #P-142) as substrate in 50 mM MES, 2 mM EDTA, 0.05% Brij 35, 2.5 mM L-cysteine, pH 6.0, room temperature. • 4. Cathepsin L: • 1 nM cathepsin L—isolated from human liver (Calbiochem #219402), 2 μM Z-Phe-Arg-AMC (Bachem #1-1160) as substrate in 50 mM MES, 2 mM EDTA, 0.05% Brij 35, 2.5 mM L-cysteine, pH 6.0, room temperature. • 5. Cathepsin S: • 0.5 nM recombinant human cathepsin S from E. coli (Calbiochem #219343), 20 μM Z-Val-Val-Arg-AMC (Bachem #1-1540) as substrate in 50 mM MES, 2 mM EDTA, 0.05% Brij 35, 2.5 mM L-cysteine, pH 6.0, room temperature. • The results of the in vitro determination are indicated in Table 1. The following abbreviations are used in Table 1: • The “Calpain activity” column, ++ stands for a calpain Ki (Ki(calpain)) of ≦40 nM and + means: 40 nM<Ki(Calpain)≦100 nM. • The “Sel. cat. B” column indicates the Ki(cathepsin B)/Ki(calpain) ratio. In this connection, ++ means a Ki(cathepsin B)/Ki(calpain) ratio of ≧30 and + means 10≦Ki(cathepsin B)/Ki(calpain)<30. • The “Sel. cat. K” column indicates the Ki(cathepsin K)/Ki(calpain) ratio. In this connection, ++ means a Ki(cathepsin K)/Ki(calpain) ratio of ≧30 and + means 10≦Ki(cathepsin K)/Ki(calpain)<30. • The “Sel. cat. L” column indicates the Ki(cathepsin L)/Ki(calpain) ratio. In this connection, ++ means a Ki(cathepsin L)/Ki(calpain) ratio of ≧50 and + means 30≦Ki(cathepsin L)/Ki(calpain)<50. • The “Sel. cat. S” column indicates the Ki(cathepsin S)/Ki(calpain) ratio. In this connection, ++ means a Ki(cathepsin S)/Ki(calpain) ratio of ≧100 and + means 50≦Ki(cathepsin S)/Ki(calpain)<100.

[2] = molecular target: T2, recombinant human cathepsin S (Homo sapiens, UniProt P25774); assay: Cathepsin S kinetic fluorescence enzyme inhibition assay; settings: selectivity ratio versus calpain I
T2 construct: purchased Calbiochem 219343; host or cells: E. coli
Procedure, shortened: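 Cathepsin B (0.25 nM, human liver) with 100 μM Z-Phe-Arg-AMC; L (1 nM, human liver) with 2 μM Z-Phe-Arg-AMC; S (0.5 nM, recombinant) with 20 μM Z-Val-Val-Arg-AMC. pH 6.0 MES buffer, 2.5 mM L-cysteine, room temperature. Kinetic fluorescence (ex 390/em 460 nm); apparent Ki from IC50 by Cheng-Prusoff.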

[3] = molecular target: T3, cathepsin L isolated from human liver (Homo sapiens, UniProt P07711); assay: Cathepsin L kinetic fluorescence enzyme inhibition assay; settings: selectivity ratio versus calpain I
T3 construct: cathepsin L—isolated from human liver; purchased Calbiochem 219402; host or cells: human liver (tissue isolate)
Experimental: as §1, §2

[4] = molecular target: T4, calpain-I isolated from human erythrocytes (Homo sapiens, UniProt P07384); assay: Calpain I kinetic fluorescence enzyme inhibition assay; settings: apparent Ki from IC50 by Cheng-Prussoff; average of 2 to 4 dose-effect plots
T4 construct: calpain-I—isolated from human erythrocytes; purchased Calbiochem 208713; host or cells: human erythrocytes (tissue isolate)
T4 sequence (P07384 1-714): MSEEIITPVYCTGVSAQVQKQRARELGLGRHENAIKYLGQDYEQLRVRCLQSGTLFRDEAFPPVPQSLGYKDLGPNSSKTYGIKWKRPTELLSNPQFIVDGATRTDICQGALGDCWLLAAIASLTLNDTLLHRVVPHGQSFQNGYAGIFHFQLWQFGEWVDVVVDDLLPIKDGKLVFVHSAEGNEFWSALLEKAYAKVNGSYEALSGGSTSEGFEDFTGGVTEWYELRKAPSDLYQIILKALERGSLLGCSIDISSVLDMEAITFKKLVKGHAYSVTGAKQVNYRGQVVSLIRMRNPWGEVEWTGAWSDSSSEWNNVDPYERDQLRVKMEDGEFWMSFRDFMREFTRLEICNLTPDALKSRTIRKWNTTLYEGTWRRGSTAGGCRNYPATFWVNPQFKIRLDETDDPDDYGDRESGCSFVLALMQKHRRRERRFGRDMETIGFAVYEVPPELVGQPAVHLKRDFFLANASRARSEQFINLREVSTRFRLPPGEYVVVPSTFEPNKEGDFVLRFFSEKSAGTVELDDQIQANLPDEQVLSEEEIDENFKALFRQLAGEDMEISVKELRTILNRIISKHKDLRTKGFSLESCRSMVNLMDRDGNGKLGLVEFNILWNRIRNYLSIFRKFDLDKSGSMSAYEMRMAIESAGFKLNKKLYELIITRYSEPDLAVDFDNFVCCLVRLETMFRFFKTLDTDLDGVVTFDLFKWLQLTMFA
T4 sequence (P04632 1-268 partner): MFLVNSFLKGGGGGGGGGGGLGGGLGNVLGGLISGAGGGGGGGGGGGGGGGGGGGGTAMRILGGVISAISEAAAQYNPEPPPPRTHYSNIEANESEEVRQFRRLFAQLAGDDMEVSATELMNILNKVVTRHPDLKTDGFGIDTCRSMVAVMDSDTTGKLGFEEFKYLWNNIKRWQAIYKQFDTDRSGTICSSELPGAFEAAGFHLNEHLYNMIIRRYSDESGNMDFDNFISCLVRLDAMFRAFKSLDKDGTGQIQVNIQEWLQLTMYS

T2 sequence (P25774 115-331): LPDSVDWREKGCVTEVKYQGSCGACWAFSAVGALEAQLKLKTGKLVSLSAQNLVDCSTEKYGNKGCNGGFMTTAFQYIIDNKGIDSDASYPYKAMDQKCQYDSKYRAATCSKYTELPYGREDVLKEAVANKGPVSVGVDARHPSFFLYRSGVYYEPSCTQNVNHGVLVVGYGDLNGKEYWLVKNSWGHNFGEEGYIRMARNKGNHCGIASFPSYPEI
T3 sequence (P07711 114-333): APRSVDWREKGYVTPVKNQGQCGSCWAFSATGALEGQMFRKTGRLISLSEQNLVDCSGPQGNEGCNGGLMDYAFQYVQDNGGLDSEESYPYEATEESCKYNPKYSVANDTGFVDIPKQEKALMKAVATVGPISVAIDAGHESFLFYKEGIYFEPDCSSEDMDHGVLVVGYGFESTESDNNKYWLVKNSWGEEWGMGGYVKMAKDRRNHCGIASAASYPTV

Compound | Sel cat. B (Ki(cathepsin B)/Ki(calpain) ratio) [1] | Ki [4] [nM] | Sel cat. S (Ki(cathepsin S)/Ki(calpain) ratio) [2] | Sel cat. L (Ki(cathepsin L)/Ki(calpain) ratio) [3]
N-{3-Amino-1-[(4-fluorophenyl)methyl]-2,3-dioxopropyl}-2-[3-(2,3-dichlorophenyl)-1H-pyrazol-1-yl]pyridine-3-carboxamide [Example 161] | + (10≦Ki(cathepsin B)/Ki(calpain)<30) | – | ++ (Ki(cathepsin S)/Ki(calpain) ratio of ≧100) | + (30≦Ki(cathepsin L)/Ki(calpain)<50)
CCCCC(NC(=O)c1cc(Cl)cnc1-n1ccc(-c2ccccc2)n1)C(=O)C(N)=O (stereo not drawn) [Example 28, N-{1-[Amino(oxo)acetyl]pentyl}-5-chloro-2-(3-phenyl-1H-pyrazol-1-yl)nicotinamide] | + (10≦Ki(cathepsin B)/Ki(calpain)<30) | ≤ 40 | – | –
CC(C)CC(NC(=O)c1cc(Cl)cnc1-n1ccc(-c2ccccc2)n1)C(=O)C(N)=O (stereo not drawn) [Example 32, N-{1-[Amino(oxo)acetyl]-3-methylbutyl}-5-chloro-2-(3-phenyl-1H-pyrazol-1-yl)nicotinamide] | + (10≦Ki(cathepsin B)/Ki(calpain)<30) | ≤ 40 | – | –
Cc1cc(-c2ccccc2)nn1-c1ncccc1C(=O)NC(Cc1ccccc1)C(=O)C(N)=O (stereo not drawn) [Example 61, N-(3-Amino-1-benzyl-2,3-dioxopropyl)-2-(5-methyl-3-phenyl-1H-pyrazol-1-yl)nicotinamide] | + (10≦Ki(cathepsin B)/Ki(calpain)<30) | – | ++ (Ki(cathepsin S)/Ki(calpain) ratio of ≧100) | –
CCCCC(NC(=O)c1cccnc1-n1ccc(-c2ccc(N3CCOCC3)cc2)n1)C(=O)C(N)=O (stereo not drawn) [Example 33, N-{1-[Amino(oxo)acetyl]pentyl}-2-[3-(4-morpholin-4-ylphenyl)-1H-pyrazol-1-yl]nicotinamide] | + (10≦Ki(cathepsin B)/Ki(calpain)<30) | ≤ 40 | + (50≦Ki(cathepsin S)/Ki(calpain)<100) | –
CCCCC(NC(=O)c1cccnc1-n1cnc(-c2ccc(N3CCOCC3)cc2)c1)C(=O)C(N)=O.Cl (stereo not drawn) [Example 15, N-{1-[Amino(oxo)acetyl]pentyl}-2-[4-(4-morpholin-4-ylphenyl)-1H-imidazol-1-yl]nicotinamide hydrochloride] | – | ≤ 40 | + (50≦Ki(cathepsin S)/Ki(calpain)<100) | ++ (Ki(cathepsin L)/Ki(calpain) ratio of ≧50)

Further lines, with some results ahead:

Sel cat. B (Ki(cathepsin B)/Ki(calpain) ratio) [1] | Ki [4] [nM] | Compound | Sel cat. S (Ki(cathepsin S)/Ki(calpain) ratio) [2] | Sel cat. L (Ki(cathepsin L)/Ki(calpain) ratio) [3]
+ (10≦Ki(cathepsin B)/Ki(calpain)<30) | ≤ 40 | NC(=O)C(=O)C(Cc1ccccc1)NC(=O)c1cccnc1-n1ccc(-c2ccc(N3CCCCC3)cc2)n1 (stereo not drawn) [Example 64, N-(3-Amino-1-benzyl-2,3-dioxopropyl)-2-[3-(4-piperidin-1-ylphenyl)-1H-pyrazol-1-yl]nicotinamide] | ++ (Ki(cathepsin S)/Ki(calpain) ratio of ≧100) | –
– | ≤ 40 | NC(=O)C(=O)C(Cc1ccccc1)NC(=O)c1ccccc1-n1ccc(-c2ccccc2)n1 (stereo not drawn) [Example 106, N-[3-Amino-2,3-dioxo-1-(phenylmethyl)propyl]-2-(3-phenyl-1H-pyrazol-1-yl)benzamide] | ++ (Ki(cathepsin S)/Ki(calpain) ratio of ≧100) | + (30≦Ki(cathepsin L)/Ki(calpain)<50)
– | 40 to 100 | N#Cc1ccc(-c2ccn(-c3ncccc3C(=O)NC(Cc3ccccc3)C(=O)C(N)=O)n2)cc1 (stereo not drawn) [Example 62, N-(3-Amino-1-benzyl-2,3-dioxopropyl)-2-[3-(4-cyanophenyl)-1H-pyrazol-1-yl]nicotinamide] | ++ (Ki(cathepsin S)/Ki(calpain) ratio of ≧100) | ++ (Ki(cathepsin L)/Ki(calpain) ratio of ≧50)
– | 40 to 100 | CS(=O)(=O)NCc1cn(-c2ncccc2C(=O)NC(Cc2ccccc2)C(=O)C(N)=O)nc1-c1ccc(F)cc1 (stereo not drawn) [Example 187, N-[3-Amino-2,3-dioxo-1-(phenylmethyl)propyl]-2-[3-(4-fluorophenyl)-4-{[(methylsulfonyl)amino]methyl}-1H-pyrazol-1-yl]pyridine-3-carboxamide] | ++ (Ki(cathepsin S)/Ki(calpain) ratio of ≧100) | + (30≦Ki(cathepsin L)/Ki(calpain)<50)
– | 40 to 100 | NC(=O)C(=O)C(Cc1ccccc1)NC(=O)c1cccnc1-n1cc2c(n1)-c1ccccc1OCC2 (stereo not drawn) [Example 141, N-[3-Amino-2,3-dioxo-1-(phenylmethyl)propyl]-2-(4,5-dihydro-2H-[1]benzoxepino[5,4-c]pyrazol-2-yl)pyridine-3-carboxamide] | ++ (Ki(cathepsin S)/Ki(calpain) ratio of ≧100) | ++ (Ki(cathepsin L)/Ki(calpain) ratio of ≧50)

Reference: US7728012B2, “Carboxamide compounds and their use as calpain inhibitors” (Abbott GmbH & Co. KG, priority 2006, dated 2010)
